From publication PMC9030254, “Target Hopping from Protein Kinases to PXR: Identification of Small-Molecule Protein Kinase Inhibitors as Selective Modulators of Pregnane X Receptor from TüKIC Library” (Cells, 2022)

Key:
Experiment in all cases: Kinase profiling
Assay type in all cases: biochemical
CDK1/CycE1 = molecular target: T1, CDK1/CycE1 (Homo sapiens, UniProt P06493)
T1 construct: purchased ProQinase (Freiburg, Germany)
Procedure: (§1) The analysis was performed by ProQinase (Freiburg, Germany).

RPS6KA2 = molecular target: T2, RPS6KA2 (Homo sapiens, UniProt Q15349)
T2 construct: purchased ProQinase (Freiburg, Germany)
Procedure: as §1

LIMK1 = molecular target: T3, LIMK1 (Homo sapiens, UniProt P53667)
T3 construct: purchased ProQinase (Freiburg, Germany)
Procedure: as §1

JAK3 = molecular target: T4, JAK3 (Homo sapiens, UniProt P52333)
T4 construct: purchased ProQinase (Freiburg, Germany)
T4 sequence (P52333 1-1124): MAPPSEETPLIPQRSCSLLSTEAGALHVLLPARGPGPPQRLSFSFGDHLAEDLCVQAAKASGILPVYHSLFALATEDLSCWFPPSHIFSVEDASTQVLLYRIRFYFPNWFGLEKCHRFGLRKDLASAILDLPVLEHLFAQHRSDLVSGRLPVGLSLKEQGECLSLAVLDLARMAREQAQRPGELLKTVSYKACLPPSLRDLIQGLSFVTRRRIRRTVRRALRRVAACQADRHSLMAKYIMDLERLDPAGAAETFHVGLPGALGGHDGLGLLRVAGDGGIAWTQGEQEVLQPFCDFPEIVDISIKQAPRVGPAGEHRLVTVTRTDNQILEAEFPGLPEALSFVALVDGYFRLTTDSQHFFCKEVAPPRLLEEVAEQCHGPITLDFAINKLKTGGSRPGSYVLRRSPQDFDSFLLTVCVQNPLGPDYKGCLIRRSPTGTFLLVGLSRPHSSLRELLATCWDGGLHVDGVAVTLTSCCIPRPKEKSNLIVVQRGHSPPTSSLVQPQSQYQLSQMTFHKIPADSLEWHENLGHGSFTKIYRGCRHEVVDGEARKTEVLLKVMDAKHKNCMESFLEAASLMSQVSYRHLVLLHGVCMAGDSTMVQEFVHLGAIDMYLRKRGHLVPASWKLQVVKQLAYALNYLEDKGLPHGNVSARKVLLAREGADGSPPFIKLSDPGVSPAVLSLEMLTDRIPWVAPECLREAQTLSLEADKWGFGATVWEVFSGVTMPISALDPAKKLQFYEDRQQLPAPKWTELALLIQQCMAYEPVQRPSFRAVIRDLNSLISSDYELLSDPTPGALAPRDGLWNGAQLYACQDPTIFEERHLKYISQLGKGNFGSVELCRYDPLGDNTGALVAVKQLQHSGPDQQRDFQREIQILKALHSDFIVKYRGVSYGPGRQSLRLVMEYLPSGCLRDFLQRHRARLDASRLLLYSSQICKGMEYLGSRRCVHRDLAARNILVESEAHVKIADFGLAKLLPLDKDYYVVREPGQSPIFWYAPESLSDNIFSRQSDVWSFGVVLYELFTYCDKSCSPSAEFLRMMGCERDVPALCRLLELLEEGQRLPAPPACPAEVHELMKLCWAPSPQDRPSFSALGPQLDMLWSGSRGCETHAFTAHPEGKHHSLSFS
Procedure: as §1

PKCbeta2 = molecular target: T5, PKCbeta2 (Homo sapiens, UniProt P05771)
T5 construct: purchased ProQinase (Freiburg, Germany)
Procedure: as §1

STK17A = molecular target: T6, STK17A (Homo sapiens, UniProt Q9UEE5)
T6 construct: purchased ProQinase (Freiburg, Germany)
T6 sequence (Q9UEE5 1-414): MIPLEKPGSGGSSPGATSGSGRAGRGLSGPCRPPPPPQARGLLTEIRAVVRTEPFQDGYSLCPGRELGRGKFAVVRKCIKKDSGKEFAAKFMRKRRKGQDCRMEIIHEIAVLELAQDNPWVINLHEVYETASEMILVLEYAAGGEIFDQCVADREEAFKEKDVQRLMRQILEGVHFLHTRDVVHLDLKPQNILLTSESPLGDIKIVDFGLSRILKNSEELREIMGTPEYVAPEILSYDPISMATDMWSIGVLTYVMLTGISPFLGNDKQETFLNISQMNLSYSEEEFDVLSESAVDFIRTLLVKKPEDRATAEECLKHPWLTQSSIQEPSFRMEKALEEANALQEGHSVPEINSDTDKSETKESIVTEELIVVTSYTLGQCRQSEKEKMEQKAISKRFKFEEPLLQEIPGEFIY
Procedure: as §1

GRK3 = molecular target: T7, GRK3 (Homo sapiens, UniProt P35626)
T7 construct: purchased ProQinase (Freiburg, Germany)
T7 sequence (P35626 1-688): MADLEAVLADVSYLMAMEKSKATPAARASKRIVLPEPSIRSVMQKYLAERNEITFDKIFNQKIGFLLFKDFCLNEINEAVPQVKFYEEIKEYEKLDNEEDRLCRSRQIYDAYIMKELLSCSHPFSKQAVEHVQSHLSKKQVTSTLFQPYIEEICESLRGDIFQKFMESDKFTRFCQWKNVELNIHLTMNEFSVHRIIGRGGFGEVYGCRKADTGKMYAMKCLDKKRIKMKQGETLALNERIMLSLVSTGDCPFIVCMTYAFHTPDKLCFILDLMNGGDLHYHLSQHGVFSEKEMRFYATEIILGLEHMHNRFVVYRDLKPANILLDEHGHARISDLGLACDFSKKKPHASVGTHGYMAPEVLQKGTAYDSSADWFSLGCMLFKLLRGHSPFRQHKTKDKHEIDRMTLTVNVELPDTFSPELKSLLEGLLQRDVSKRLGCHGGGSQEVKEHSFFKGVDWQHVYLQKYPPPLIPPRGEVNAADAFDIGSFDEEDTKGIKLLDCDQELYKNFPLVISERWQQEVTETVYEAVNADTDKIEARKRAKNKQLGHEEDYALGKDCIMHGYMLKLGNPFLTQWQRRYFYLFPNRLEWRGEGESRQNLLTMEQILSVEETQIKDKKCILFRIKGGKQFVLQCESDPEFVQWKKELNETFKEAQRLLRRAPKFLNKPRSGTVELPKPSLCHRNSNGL
Procedure: as §1

TSF1 = molecular target: T8, TSF1 (Homo sapiens, UniProt O75716)
T8 construct: purchased ProQinase (Freiburg, Germany)
Procedure: as §1

T3 sequence (P53667 whole entry): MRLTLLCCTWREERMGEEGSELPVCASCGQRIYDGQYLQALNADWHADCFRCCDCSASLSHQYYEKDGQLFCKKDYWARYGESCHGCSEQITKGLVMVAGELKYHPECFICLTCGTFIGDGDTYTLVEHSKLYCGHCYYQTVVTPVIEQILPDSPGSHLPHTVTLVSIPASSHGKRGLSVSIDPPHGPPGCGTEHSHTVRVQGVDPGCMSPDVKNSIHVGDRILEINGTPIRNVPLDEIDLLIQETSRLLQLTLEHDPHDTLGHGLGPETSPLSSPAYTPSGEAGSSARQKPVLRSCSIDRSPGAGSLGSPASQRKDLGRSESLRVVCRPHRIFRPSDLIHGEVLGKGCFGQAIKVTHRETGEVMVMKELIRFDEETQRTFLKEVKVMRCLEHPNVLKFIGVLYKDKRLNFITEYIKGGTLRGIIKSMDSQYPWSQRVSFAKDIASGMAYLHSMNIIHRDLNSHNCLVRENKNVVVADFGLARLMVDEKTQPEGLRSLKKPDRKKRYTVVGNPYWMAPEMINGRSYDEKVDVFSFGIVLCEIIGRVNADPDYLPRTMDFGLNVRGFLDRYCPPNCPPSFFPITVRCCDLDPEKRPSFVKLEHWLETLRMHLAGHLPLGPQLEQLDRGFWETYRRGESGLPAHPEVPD
T2 sequence (Q15349 whole entry): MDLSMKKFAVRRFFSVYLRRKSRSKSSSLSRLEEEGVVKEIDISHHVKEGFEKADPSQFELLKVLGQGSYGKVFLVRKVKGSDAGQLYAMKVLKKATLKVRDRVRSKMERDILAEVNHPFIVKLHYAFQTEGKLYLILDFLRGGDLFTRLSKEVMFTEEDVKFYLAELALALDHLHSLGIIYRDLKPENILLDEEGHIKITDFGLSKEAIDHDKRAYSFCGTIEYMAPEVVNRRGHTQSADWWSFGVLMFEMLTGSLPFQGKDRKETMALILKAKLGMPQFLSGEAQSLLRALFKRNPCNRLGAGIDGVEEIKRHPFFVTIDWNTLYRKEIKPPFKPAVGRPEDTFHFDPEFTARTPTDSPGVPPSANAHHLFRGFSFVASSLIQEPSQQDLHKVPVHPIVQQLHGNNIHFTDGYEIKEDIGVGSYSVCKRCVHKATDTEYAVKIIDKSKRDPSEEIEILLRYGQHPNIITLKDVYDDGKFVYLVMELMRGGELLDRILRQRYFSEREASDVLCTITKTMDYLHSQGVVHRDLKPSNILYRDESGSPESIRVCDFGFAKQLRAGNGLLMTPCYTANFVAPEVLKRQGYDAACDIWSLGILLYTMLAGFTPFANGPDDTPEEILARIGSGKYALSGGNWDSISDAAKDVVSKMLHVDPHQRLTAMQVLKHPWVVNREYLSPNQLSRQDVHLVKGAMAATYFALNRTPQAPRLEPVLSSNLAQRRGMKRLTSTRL
T1 sequence (P06493 whole entry): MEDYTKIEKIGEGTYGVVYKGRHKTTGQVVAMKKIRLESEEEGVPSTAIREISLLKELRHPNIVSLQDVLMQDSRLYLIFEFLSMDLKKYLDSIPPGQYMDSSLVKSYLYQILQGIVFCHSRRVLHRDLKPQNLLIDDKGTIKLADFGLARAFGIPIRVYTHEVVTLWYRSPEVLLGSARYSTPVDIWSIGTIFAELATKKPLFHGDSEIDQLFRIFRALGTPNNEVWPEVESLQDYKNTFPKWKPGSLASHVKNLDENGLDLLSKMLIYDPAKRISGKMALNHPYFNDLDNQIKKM
T1 sequence (P24864 whole entry partner): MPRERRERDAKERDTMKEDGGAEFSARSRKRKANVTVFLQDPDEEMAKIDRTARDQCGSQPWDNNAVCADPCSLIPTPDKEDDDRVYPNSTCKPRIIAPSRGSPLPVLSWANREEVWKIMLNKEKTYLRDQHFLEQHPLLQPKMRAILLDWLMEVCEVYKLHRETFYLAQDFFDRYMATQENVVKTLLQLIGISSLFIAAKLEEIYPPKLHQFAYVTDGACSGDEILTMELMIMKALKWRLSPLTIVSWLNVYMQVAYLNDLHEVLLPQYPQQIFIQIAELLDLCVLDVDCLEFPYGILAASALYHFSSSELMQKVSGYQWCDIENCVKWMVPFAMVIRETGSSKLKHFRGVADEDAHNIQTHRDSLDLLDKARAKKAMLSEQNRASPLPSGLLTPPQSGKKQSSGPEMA
T8 sequence (O75716 whole entry): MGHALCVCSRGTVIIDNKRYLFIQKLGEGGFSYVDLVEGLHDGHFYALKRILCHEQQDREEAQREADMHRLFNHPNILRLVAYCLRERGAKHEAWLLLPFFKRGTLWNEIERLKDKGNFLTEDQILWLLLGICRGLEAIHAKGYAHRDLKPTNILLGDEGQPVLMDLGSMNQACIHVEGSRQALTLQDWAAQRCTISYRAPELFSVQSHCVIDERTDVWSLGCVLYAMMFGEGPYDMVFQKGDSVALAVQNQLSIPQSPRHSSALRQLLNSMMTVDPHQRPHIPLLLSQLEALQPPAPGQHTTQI
T5 sequence (P05771 1-673 isoform P05771-2): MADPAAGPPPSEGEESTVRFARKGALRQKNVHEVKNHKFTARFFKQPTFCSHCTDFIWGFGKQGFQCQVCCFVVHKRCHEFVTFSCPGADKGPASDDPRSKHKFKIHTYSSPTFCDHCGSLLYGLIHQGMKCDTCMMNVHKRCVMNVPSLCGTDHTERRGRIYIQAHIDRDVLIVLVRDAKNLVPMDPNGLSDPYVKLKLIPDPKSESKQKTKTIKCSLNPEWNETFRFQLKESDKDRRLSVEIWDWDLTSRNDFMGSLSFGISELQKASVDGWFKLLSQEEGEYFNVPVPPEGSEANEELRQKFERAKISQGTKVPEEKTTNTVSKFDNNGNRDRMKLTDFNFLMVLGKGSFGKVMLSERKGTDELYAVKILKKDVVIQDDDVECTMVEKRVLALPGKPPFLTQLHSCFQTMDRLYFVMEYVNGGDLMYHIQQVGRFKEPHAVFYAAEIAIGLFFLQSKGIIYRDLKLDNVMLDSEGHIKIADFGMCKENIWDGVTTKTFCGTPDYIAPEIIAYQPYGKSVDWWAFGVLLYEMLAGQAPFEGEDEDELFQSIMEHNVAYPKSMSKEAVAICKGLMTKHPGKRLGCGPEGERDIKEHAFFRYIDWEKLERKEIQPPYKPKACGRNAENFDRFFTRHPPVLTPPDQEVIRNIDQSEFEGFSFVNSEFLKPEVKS

SMILES | Residual activity (CDK1/CycE1; 1.0E-05 M) | Residual activity (CDK1/CycE1; 1.0E-06 M) | Residual activity (RPS6KA2; 1.0E-05 M) | Residual activity (RPS6KA2; 1.0E-06 M) | Residual activity (LIMK1; 1.0E-05 M) | Residual activity (LIMK1; 1.0E-06 M) | Residual activity (JAK3; 1.0E-05 M) | Residual activity (JAK3; 1.0E-06 M) | Residual activity (PKCbeta2; 1.0E-05 M) | Residual activity (PKCbeta2; 1.0E-06 M) | Residual activity (STK17A; 1.0E-05 M) | Residual activity (STK17A; 1.0E-06 M) | Residual activity (GRK3; 1.0E-05 M) | Residual activity (GRK3; 1.0E-06 M) | Residual activity (TSF1; 1.0E-05 M) | Residual activity (TSF1; 1.0E-06 M)
O=C(Nc1ccc(F)c(Nc2ccc3c(c2)CCCCC3=O)c1)c1cccc(F)c1 [Compound 109] | 98 % of control | 96 % of control | 75 % of control | 95 % of control | 96 % of control | 89 % of control | 79 % of control | 83 % of control | 90 % of control | 97 % of control | 88 % of control | 105 % of control | 138 % of control | 122 % of control | 94 % of control | 97 % of control
O=C(Cc1ccccc1)Nc1ccc(F)c(Nc2ccc3c(c2)CCCCC3=O)c1 [Compound 100] | 100 % of control | 102 % of control | 84 % of control | 95 % of control | 87 % of control | 102 % of control | 75 % of control | 80 % of control | 84 % of control | 105 % of control | 76 % of control | 111 % of control | 144 % of control | 118 % of control | 88 % of control | 107 % of control
